pIC50: −log10 of the molar value. Like-named read-outs stand apart in the source and are kept apart here. Positions of bridges follow the written chain, without caps; N, C: chain ends. Non-standard residues stand in square brackets, D forms with d. Residues, ends and D or L forms follow the SMILES beside them. Phe(4-tBu) = CC(C)(C)c1ccc(C[C@H](N)C(=O)O)cc1; Phe(4-Me) = Cc1ccc(C[C@H](N)C(=O)O)cc1
Assays:
Test in all cases: cell-based
[1] = molecular target: hNav1.7 (Homo sapiens, UniProt Q15858); assay type: cell-based
[2] = molecular target: hNav1.5 (Homo sapiens, UniProt Q14524)
hNav1.5, sequence (Q14524 whole entry, looked up): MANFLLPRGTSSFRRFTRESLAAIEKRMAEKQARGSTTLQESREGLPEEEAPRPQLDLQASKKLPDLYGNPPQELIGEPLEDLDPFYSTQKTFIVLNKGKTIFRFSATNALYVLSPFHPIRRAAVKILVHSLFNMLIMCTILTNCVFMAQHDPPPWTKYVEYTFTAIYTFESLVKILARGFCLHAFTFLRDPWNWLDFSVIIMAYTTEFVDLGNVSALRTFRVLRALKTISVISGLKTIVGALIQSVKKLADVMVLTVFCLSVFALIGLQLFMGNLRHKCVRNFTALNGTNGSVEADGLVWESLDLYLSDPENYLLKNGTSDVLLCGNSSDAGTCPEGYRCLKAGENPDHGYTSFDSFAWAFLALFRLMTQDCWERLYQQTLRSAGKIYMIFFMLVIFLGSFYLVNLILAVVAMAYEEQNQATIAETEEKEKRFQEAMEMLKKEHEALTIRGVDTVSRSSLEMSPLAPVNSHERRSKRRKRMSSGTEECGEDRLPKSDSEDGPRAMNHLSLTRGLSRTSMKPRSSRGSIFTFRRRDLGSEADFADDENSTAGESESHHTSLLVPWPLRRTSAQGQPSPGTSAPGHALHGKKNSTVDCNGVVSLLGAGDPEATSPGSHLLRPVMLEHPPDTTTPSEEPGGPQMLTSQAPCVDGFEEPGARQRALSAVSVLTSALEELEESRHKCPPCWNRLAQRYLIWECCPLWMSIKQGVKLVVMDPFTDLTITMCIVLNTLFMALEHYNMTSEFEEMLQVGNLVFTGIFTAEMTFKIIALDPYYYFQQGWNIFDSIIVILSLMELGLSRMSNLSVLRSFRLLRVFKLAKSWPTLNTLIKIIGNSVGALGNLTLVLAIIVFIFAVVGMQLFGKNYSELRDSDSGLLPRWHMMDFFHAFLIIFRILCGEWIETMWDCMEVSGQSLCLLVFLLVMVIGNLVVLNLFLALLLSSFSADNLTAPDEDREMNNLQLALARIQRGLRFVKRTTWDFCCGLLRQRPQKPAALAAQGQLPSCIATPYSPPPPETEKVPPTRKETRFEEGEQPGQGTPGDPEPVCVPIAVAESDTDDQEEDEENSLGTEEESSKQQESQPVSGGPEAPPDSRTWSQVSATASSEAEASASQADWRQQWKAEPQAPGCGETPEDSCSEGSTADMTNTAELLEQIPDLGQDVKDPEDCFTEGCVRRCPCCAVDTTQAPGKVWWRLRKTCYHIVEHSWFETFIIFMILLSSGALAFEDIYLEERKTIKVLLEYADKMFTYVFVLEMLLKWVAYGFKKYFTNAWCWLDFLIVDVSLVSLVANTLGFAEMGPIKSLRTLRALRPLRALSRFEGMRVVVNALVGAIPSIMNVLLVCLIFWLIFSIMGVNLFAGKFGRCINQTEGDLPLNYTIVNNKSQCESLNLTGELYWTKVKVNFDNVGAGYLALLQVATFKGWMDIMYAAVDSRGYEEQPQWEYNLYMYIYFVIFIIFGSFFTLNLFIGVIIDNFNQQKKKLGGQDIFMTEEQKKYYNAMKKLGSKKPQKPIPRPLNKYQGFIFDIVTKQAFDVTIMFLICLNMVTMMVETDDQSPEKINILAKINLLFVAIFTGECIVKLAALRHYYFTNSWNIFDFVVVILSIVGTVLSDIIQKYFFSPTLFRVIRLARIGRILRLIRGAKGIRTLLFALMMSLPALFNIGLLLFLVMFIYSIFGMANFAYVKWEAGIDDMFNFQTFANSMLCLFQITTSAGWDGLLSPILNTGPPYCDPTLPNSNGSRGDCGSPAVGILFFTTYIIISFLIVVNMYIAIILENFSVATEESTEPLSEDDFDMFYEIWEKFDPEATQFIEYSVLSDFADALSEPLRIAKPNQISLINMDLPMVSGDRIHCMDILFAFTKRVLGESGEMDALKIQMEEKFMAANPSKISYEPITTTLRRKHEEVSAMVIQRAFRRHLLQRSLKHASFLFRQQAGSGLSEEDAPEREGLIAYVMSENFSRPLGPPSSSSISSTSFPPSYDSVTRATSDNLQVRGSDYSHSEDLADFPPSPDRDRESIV

[3] = molecular target: hNav1.3 (Homo sapiens, UniProt Q9NY46); details: IonWorks Quattro, read-out: IWQ Use Nav1.3
hNav1.3, sequence (Q9NY46 whole entry, looked up): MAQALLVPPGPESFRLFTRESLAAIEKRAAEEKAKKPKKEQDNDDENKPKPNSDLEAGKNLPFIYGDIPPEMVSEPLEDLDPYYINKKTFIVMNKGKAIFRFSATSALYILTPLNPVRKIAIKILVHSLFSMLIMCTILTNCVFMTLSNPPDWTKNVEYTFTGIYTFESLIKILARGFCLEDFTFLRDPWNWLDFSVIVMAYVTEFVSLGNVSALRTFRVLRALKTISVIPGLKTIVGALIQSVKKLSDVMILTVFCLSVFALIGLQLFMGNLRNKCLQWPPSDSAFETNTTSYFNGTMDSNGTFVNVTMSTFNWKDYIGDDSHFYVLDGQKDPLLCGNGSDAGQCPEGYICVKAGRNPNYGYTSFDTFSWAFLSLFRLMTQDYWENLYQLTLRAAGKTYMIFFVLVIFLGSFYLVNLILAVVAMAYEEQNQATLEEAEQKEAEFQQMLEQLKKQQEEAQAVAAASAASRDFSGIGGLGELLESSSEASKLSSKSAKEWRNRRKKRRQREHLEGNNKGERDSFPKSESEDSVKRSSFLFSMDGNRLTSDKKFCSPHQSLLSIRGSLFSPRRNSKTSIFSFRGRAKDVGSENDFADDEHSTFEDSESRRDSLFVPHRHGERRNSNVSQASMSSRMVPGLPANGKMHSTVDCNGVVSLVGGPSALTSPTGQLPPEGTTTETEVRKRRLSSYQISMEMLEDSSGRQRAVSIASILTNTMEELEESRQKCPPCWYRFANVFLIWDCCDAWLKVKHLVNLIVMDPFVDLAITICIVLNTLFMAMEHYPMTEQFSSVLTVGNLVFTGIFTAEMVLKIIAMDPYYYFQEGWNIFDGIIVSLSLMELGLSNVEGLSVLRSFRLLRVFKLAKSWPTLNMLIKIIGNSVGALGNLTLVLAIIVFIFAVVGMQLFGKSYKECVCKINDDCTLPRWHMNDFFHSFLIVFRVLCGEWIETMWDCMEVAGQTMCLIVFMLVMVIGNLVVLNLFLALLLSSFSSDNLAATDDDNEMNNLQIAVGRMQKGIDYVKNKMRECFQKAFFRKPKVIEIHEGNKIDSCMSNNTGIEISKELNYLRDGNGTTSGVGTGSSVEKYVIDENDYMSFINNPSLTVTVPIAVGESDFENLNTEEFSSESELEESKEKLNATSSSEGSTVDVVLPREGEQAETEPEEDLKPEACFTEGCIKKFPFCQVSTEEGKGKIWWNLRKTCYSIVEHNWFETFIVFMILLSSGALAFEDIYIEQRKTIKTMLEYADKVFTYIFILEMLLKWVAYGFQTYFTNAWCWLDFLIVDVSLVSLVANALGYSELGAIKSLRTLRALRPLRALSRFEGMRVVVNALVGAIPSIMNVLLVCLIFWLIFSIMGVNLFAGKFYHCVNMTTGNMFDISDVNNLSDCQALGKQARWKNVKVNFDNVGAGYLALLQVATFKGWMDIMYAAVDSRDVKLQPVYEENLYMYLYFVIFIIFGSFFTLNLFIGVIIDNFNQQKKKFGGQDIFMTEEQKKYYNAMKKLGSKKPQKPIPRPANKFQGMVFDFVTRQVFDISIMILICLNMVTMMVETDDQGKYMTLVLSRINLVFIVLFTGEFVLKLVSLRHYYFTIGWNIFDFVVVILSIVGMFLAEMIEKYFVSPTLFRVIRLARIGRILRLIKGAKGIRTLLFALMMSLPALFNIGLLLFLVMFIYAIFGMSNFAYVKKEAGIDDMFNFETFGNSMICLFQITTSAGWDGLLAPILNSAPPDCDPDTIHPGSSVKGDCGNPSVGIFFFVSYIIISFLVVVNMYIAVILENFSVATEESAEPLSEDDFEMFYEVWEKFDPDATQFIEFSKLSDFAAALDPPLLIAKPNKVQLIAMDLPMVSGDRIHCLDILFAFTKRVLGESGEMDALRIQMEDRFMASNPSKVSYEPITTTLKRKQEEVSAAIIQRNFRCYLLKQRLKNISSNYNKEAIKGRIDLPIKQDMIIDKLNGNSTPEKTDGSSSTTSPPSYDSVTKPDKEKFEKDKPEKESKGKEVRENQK

[4] = IonWorks Quattro, use-dependent protocol, hNav1.7, read-out: IWQ Use Nav1.7
[5] = IonWorks Quattro, use-dependent protocol, hNav1.5, read-out: IWQ Use Nav1.5
[6] = use-dependent protocol, hNav1.3

| Structure (SMILES) | pIC50 [1, 4] | pIC50 [2, 5] | pIC50 [3, 6] | further results |
| --- | --- | --- | --- | --- |
| CC[C@H](C)[C@@H]1NC(=O)[C@@H]2CSSC[C@@H]3NC(=O)[C@H](C(C)C)NC(=O)[C@H](CC(C)C)NC(=O)[C@H](CC(N)=O)NC(=O)[C@@H]4CCCN4C(=O)[C@H](CCCNC(=N)N)NC(=O)[C@H](CSSC[C@H](NC(=O)[C@@H](N)CC(=O)O)C(=O)N[C@@H](CC(C)C)C(=O)NCC(=O)N[C@@H](Cc4ccccc4)C(=O)N[C@@H](CCSC)C(=O)N[C@@H](CCCNC(=N)N)C(=O)N[C@@H](CCCCN)C(=O)N2)NC(=O)[C@H](CSSC[C@@H](C(=O)N[C@@H](CCCCN)C(=O)N[C@@H](Cc2ccc(O)cc2)C(=O)N[C@H](C(=O)N[C@@H](Cc2ccccc2)C(N)=O)C(C)C)NC(=O)[C@H](Cc2c[nH]c4ccccc24)NC(=O)[C@H](CCCCN)NC(=O)[C@H](Cc2c[nH]cn2)NC(=O)[C@H](CCSC)NC(=O)[C@H](CCCNC(=N)N)NC(=O)[C@H](CO)NC3=O)NC(=O)[C@H](CCCCN)NC(=O)[C@H](CC(=O)O)NC(=O)[C@H](CC(N)=O)NC(=O)[C@H](CC(=O)O)NC(=O)[C@@H]2CCCN2C1=O [compound 346] (H-DCLGFMRKCIPDNDKCCRPNLVCSRMHKWCKYVF-NH2; disulfide 2-17, 9-23, 16-30) |  |  |  | pIC50 ([1]; Table 22, IonWorks Quattro, use, […], read-out: IWQ Use Nav1.7): 7.40; pIC50 ([2]; Table 22, IonWorks Quattro, use, […], read-out: IWQ Use Nav1.5): 5.37; pIC50 ([3]; Table 22, use, […]): 7.70 |
| CC[C@H](C)[C@@H]1NC(=O)[C@@H]2CSSC[C@@H]3NC(=O)[C@H](C(C)C)NC(=O)[C@H](CC(C)C)NC(=O)[C@H](CC(N)=O)NC(=O)[C@@H]4CCCN4C(=O)[C@H](CCCNC(=N)N)NC(=O)[C@H](CSSC[C@H](NC(=O)[C@@H](N)CC(=O)O)C(=O)N[C@@H](CC(C)C)C(=O)NCC(=O)N[C@@H](Cc4ccc(C)cc4)C(=O)N[C@@H](Cc4ccccc4)C(=O)N[C@@H](CCCNC(=N)N)C(=O)N[C@@H](CCCCN)C(=O)N2)NC(=O)[C@H](CSSC[C@@H](C(=O)N[C@@H](CCCCN)C(=O)N[C@@H](Cc2ccc(O)cc2)C(=O)N[C@H](C(=O)N[C@@H](Cc2ccccc2)C(N)=O)C(C)C)NC(=O)[C@H](Cc2c[nH]c4ccccc24)NC(=O)[C@H](CCCCN)NC(=O)[C@H](Cc2c[nH]cn2)NC(=O)[C@H]([C@@H](C)O)NC(=O)[C@H](CCCNC(=N)N)NC(=O)[C@H](CO)NC3=O)NC(=O)[C@H](CCCCN)NC(=O)[C@H](CC(=O)O)NC(=O)[C@H](CC(N)=O)NC(=O)[C@H](CC(=O)O)NC(=O)[C@@H]2CCCN2C1=O [compound 625] (H-DCLG[Phe(4-Me)]FRKCIPDNDKCCRPNLVCSRTHKWCKYVF-NH2; disulfide 2-17, 9-23, 16-30) | 7.20 | 5.19 | 7.29 |  |
| CC[C@H](C)[C@@H]1NC(=O)[C@@H]2CSSC[C@@H]3NC(=O)[C@H](C(C)C)NC(=O)[C@H](CC(C)C)NC(=O)[C@H](CC(N)=O)NC(=O)[C@@H]4CCCN4C(=O)[C@H](CCCNC(=N)N)NC(=O)[C@H](CSSC[C@H](NC(=O)[C@@H](N)CC(=O)O)C(=O)N[C@@H](CC(C)C)C(=O)NCC(=O)N[C@@H](Cc4ccc(C)cc4)C(=O)N[C@@H](CC(C)C)C(=O)N[C@@H](CCCNC(=N)N)C(=O)N[C@@H](CCCCN)C(=O)N2)NC(=O)[C@H](CSSC[C@@H](C(=O)N[C@@H](CCCCN)C(=O)N[C@@H](Cc2ccc(O)cc2)C(=O)N[C@H](C(=O)N[C@@H](Cc2ccccc2)C(N)=O)C(C)C)NC(=O)[C@H](Cc2c[nH]c4ccccc24)NC(=O)[C@H](CCCCN)NC(=O)[C@H](Cc2c[nH]cn2)NC(=O)[C@H]([C@@H](C)O)NC(=O)[C@H](CCCNC(=N)N)NC(=O)[C@H](CO)NC3=O)NC(=O)[C@H](CCCCN)NC(=O)[C@H](CC(=O)O)NC(=O)[C@H](CC(N)=O)NC(=O)[C@H](CC(=O)O)NC(=O)[C@@H]2CCCN2C1=O [compound 670] | 6.72 | < 5.30 | 7.26 |  |
| CC[C@H](C)[C@@H]1NC(=O)[C@@H]2CSSC[C@@H]3NC(=O)[C@H](C(C)C)NC(=O)[C@H](CC(C)C)NC(=O)[C@H](CC(N)=O)NC(=O)[C@@H]4CCCN4C(=O)[C@H](CCCNC(=N)N)NC(=O)[C@H](CSSC[C@H](NC(=O)[C@@H](N)CC(=O)O)C(=O)N[C@@H](CC(C)C)C(=O)NCC(=O)N[C@@H](Cc4ccc(C(C)(C)C)cc4)C(=O)N[C@@H](Cc4ccccc4)C(=O)N[C@@H](CCCNC(=N)N)C(=O)N[C@@H](CCCCN)C(=O)N2)NC(=O)[C@H](CSSC[C@@H](C(=O)N[C@@H](CCCCN)C(=O)N[C@@H](Cc2ccc(O)cc2)C(=O)N[C@H](C(=O)N[C@@H](Cc2ccccc2)C(N)=O)C(C)C)NC(=O)[C@H](Cc2c[nH]c4ccccc24)NC(=O)[C@H](CCCCN)NC(=O)[C@H](Cc2c[nH]cn2)NC(=O)[C@H]([C@@H](C)O)NC(=O)[C@H](CCCNC(=N)N)NC(=O)[C@H](CO)NC3=O)NC(=O)[C@H](CCCCN)NC(=O)[C@H](CC(=O)O)NC(=O)[C@H](CC(N)=O)NC(=O)[C@H](CC(=O)O)NC(=O)[C@@H]2CCCN2C1=O [compound 626] (H-DCLG[Phe(4-tBu)]FRKCIPDNDKCCRPNLVCSRTHKWCKYVF-NH2; disulfide 2-17, 9-23, 16-30) | 7.28 | 5.33 | 7.68 |  |
| CC[C@H](C)[C@@H]1NC(=O)[C@@H]2CSSC[C@@H]3NC(=O)[C@H](CCCCN)NC(=O)[C@H](CC(C)C)NC(=O)[C@H](CC(N)=O)NC(=O)[C@@H]4CCCN4C(=O)[C@H](CCCNC(=N)N)NC(=O)[C@H](CSSC[C@H](NC(=O)[C@@H](N)CC(=O)O)C(=O)N[C@@H](CC(C)C)C(=O)NCC(=O)N[C@@H](Cc4ccccc4)C(=O)N[C@@H](CCSC)C(=O)N[C@@H](CCCNC(=N)N)C(=O)N[C@@H](CCCCN)C(=O)N2)NC(=O)[C@H](CSSC[C@@H](C(=O)N[C@@H](CCCCN)C(=O)N[C@@H](Cc2ccc(O)cc2)C(=O)N[C@H](C(=O)N[C@@H](Cc2ccccc2)C(N)=O)C(C)C)NC(=O)[C@H](Cc2c[nH]c4ccccc24)NC(=O)[C@H](CCCCN)NC(=O)[C@H](Cc2cnc[nH]2)NC(=O)[C@H]([C@@H](C)O)NC(=O)[C@H](CCCNC(=N)N)NC(=O)[C@H](CO)NC3=O)NC(=O)[C@H](CCCCN)NC(=O)[C@H](CC(=O)O)NC(=O)[C@H](CC(N)=O)NC(=O)[C@H](CC(=O)O)NC(=O)[C@@H]2CCCN2C1=O [compound 52] (H-DCLGFMRKCIPDNDKCCRPNLKCSRTHKWCKYVF-NH2; disulfide 2-17, 9-23, 16-30) |  |  |  | pIC50 [1]: 6.72; pIC50 ([2]; IonWorks Quattro, Use, read-out: IWQ Use Nav1.5): 4.82; pIC50 ([3]; Use): 7.10 |
| CC[C@H](C)[C@@H]1NC(=O)[C@@H]2CSSC[C@@H]3NC(=O)[C@H](C(C)C)NC(=O)[C@H](CC(C)C)NC(=O)[C@H](CC(N)=O)NC(=O)[C@@H]4CCCN4C(=O)[C@H](CCCNC(=N)N)NC(=O)[C@H](CSSC[C@H](NC(=O)[C@@H](N)CC(=O)O)C(=O)N[C@@H](CC(C)C)C(=O)NCC(=O)N[C@@H](Cc4ccc(C(C)(C)C)cc4)C(=O)N[C@@H](CCSC)C(=O)N[C@@H](CCCNC(=N)N)C(=O)N[C@@H](CCCCN)C(=O)N2)NC(=O)[C@H](CSSC[C@@H](C(=O)N[C@@H](CCCCN)C(=O)N[C@@H](Cc2ccc(O)cc2)C(=O)N[C@H](C(=O)N[C@@H](Cc2ccccc2)C(N)=O)C(C)C)NC(=O)[C@H](Cc2c[nH]c4ccccc24)NC(=O)[C@H](CCCCN)NC(=O)[C@H](Cc2c[nH]cn2)NC(=O)[C@H]([C@@H](C)O)NC(=O)[C@H](CCCNC(=N)N)NC(=O)[C@H](CO)NC3=O)NC(=O)[C@H](CCCCN)NC(=O)[C@H](CC(=O)O)NC(=O)[C@H](CC(N)=O)NC(=O)[C@H](CC(=O)O)NC(=O)[C@@H]2CCCN2C1=O [compound 687] | 6.57 |  | 6.89 | pIC50 ([2]; IWQ Use Nav1.5): < 5.30 |
| CC[C@H](C)[C@@H]1NC(=O)[C@@H]2CSSC[C@@H]3NC(=O)[C@H](C(C)C)NC(=O)[C@H](CC(C)C)NC(=O)[C@H](CC(N)=O)NC(=O)[C@@H]4CCCN4C(=O)[C@H](CCCNC(=N)N)NC(=O)[C@H](CSSC[C@H](NC(=O)[C@@H](N)CC(=O)O)C(=O)N[C@@H](CC(C)C)C(=O)NCC(=O)N[C@@H](C)C(=O)N[C@@H](Cc4ccccc4)C(=O)N[C@@H](CCCNC(=N)N)C(=O)N[C@@H](CCCCN)C(=O)N2)NC(=O)[C@H](CSSC[C@@H](C(=O)N[C@@H](CCCCN)C(=O)N[C@@H](Cc2ccc(O)cc2)C(=O)N[C@H](C(=O)N[C@@H](Cc2ccccc2)C(=O)O)C(C)C)NC(=O)[C@H](Cc2c[nH]c4ccccc24)NC(=O)[C@H](CCCNC(=N)N)NC(=O)[C@H](Cc2c[nH]cn2)NC(=O)[C@H]([C@@H](C)O)NC(=O)[C@H](CCCNC(=N)N)NC(=O)[C@H](CO)NC3=O)NC(=O)[C@H](CCCCN)NC(=O)[C@H](CC(=O)O)NC(=O)[C@H](Cc2c[nH]cn2)NC(=O)[C@H](CC(=O)O)NC(=O)[C@@H]2CCCN2C1=O [compound 841] |  |  |  | pIC50 ([1]; IonWorks Quattro, use-dependent block, hNav1.7, read-out: IWQ Use Nav1.7): < 5.30; pIC50 ([2]; IonWorks Quattro, use-dependent block, hNav1.5, read-out: IWQ Use Nav1.5): < 5.30; pIC50 ([3]; use-dependent block, hNav1.3): < 5.30 |
| CC[C@H](C)[C@@H]1NC(=O)[C@@H]2CSSC[C@@H]3NC(=O)[C@H](C(C)C)NC(=O)[C@H](CC(C)C)NC(=O)[C@H](CC(N)=O)NC(=O)[C@@H]4CCCN4C(=O)[C@H](CCCNC(=N)N)NC(=O)[C@H](CSSC[C@H](NC(=O)[C@@H](N)CC(=O)O)C(=O)N[C@@H](CC(C)C)C(=O)NCC(=O)N(C)[C@@H](Cc4ccccc4)C(=O)N[C@@H](CCSC)C(=O)N[C@@H](CCCNC(=N)N)C(=O)N[C@@H](CCCCN)C(=O)N2)NC(=O)[C@H](CSSC[C@@H](C(=O)N[C@@H](CCCCN)C(=O)N[C@@H](Cc2ccc(O)cc2)C(=O)N[C@H](C(=O)N[C@@H](Cc2ccccc2)C(N)=O)C(C)C)NC(=O)[C@H](Cc2c[nH]c4ccccc24)NC(=O)[C@H](CCCCN)NC(=O)[C@H](Cc2c[nH]cn2)NC(=O)[C@H]([C@@H](C)O)NC(=O)[C@H](CCCNC(=N)N)NC(=O)[C@H](CO)NC3=O)NC(=O)[C@H](CCCCN)NC(=O)[C@H](CC(=O)O)NC(=O)[C@H](CC(N)=O)NC(=O)[C@H](CC(=O)O)NC(=O)[C@@H]2CCCN2C1=O [compound 657] | 6.44 |  | 6.55 | pIC50 ([2]; IWQ Use Nav1.5): < 5.30 |
